# In US9290511B2, “Thieno-pyrimidines, useful as potassium channel inhibitors” (XENTION LIMITED, priority 2011, dated 2016):
# Target: T1, Kir3.1/3.4 (Rattus norvegicus, UniProt P48548+P63251)
# T1 construct: expressed in transfected cells
# T1 sequence (P63251 1-501): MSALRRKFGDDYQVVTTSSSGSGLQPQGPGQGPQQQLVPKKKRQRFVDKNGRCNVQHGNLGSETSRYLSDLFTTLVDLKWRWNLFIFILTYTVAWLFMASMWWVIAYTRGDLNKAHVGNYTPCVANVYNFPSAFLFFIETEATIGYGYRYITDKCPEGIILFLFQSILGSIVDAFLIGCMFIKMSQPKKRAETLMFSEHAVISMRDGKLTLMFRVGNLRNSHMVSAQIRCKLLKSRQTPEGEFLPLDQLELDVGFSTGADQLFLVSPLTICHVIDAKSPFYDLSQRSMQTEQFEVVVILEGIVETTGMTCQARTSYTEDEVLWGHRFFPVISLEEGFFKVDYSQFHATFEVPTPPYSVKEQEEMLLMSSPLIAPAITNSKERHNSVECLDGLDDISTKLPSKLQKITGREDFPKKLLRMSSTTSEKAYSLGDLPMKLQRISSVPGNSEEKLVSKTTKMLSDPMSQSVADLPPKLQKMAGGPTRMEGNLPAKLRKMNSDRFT
# T1 sequence (P48548 1-419): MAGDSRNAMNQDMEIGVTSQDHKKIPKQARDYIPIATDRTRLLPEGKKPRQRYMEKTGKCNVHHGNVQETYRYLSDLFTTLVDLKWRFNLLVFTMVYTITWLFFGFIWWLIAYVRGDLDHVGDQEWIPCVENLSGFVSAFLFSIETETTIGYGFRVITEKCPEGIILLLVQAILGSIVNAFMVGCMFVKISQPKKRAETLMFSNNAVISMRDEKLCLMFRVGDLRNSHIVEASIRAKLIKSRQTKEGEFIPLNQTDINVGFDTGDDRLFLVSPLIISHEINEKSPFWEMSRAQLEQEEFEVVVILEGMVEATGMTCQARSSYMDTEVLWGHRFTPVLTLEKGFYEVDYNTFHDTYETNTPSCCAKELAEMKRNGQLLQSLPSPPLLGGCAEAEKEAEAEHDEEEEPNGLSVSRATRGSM
# Experiment: Kir3.1/3.4 Electrophysiology Method (manual whole-cell patch clamp)
# Type: cell-based
# Details: Electrophysiology Method (TABLE 1)
# Procedure, shortened: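 Percent inhibition is relative to the pre-drug current, both leak-subtracted using a potassium-free bather, taken as the mean current at −140 mV. The protocol was a step to +60 mV, a ramp to −140 mV, then a return to −60 mV holding, every 10 s. Cells were rat Kir3.1/3.4-transfected HEK293 recorded by whole-cell patch clamp.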
row,SMILES,IC50 [nM]
1,CC(C)c1csc2nc(N3CCC(C(N)=O)C3)nc(N3CCC(CN(C)C4CCN(C)C4)CC3)c12 (centres unmarked) [Example 245],< 500
2,CCN(CC)C(=O)C1CCCN(CC2CCN(c3ncnc4scc(-c5ccccc5)c34)CC2)C1 (centres unmarked) [Example 246],< 500
3,CN1CC(N(C)CC2CCN(c3ncnc4scc(-c5ccccc5)c34)CC2)CC1=O (centres unmarked) [Example 250],500 to 3000
4,CN(CC1CCN(c2ncnc3scc(-c4ccccc4)c23)CC1)C1CCC1 [Example 251],< 500
5,"CNC(=O)CN(CC1CCN(c2ncnc3scc(-c4ccccc4)c23)CC1)C1CCC1 [Example 252, 2-[cyclobutyl-[[1-(5-phenylthieno[2,3-d]pyrimidin-4-yl)-4-piperidyl]methyl]amino]-N-methyl-acetamide]",500 to 3000
6,CC(=O)NC1CCN(CC2CCN(c3ncnc4scc(-c5ccccc5)c34)CC2)C1 (centres unmarked) [Example 253],< 500
7,CC(=O)NC1CCN(c2nc(N3CCC(COCCN4CCCC4)CC3)c3c(-c4ccccc4)csc3n2)C1 (centres unmarked) [Example 257],< 500
8,CC(=O)NC1CCN(c2nc(N3CCC(COCCN4CCOCC4)CC3)c3c(-c4ccccc4)csc3n2)C1 (centres unmarked) [Example 259],< 500
9,CC(=O)N1CCN(CCOCC2CCN(c3ncnc4scc(-c5ccccc5)c34)CC2)CC1 [Example 261],< 500
10,c1ccc(-c2csc3ncnc(N4CC[C@H](COCCN5CCCC5)C4)c23)cc1 [Example 263],< 500
11,CC(C)c1csc2ncnc(N3CCC(COCCN4CCCC4)CC3)c12 [Example 265],< 500
12,CN1CCC(N(C)CC2CCN(c3ncnc4sc(Br)c(-c5ccccc5)c34)CC2)C1 (centres unmarked) [Example 266],< 500
13,c1ccc(-c2csc3ncnc(N4CC(COCCN5CCCC5)C4)c23)cc1 [Example 273],500 to 3000
14,Fc1ccc(-c2csc3nc(Cl)nc(N4CCC(COCCN5CCCC5)CC4)c23)cc1 [Example 279],< 500
15,CN1CCC(N(C)C(=O)C2CCCN(c3ncnc4scc(-c5ccccc5)c34)C2)C1 (centres unmarked) [Example 282],500 to 3000
16,c1ccc(-c2csc3ncnc(N4C5CCC4CC(COCCN4CCCC4)C5)c23)cc1 (centres unmarked) [Example 286],< 500
17,CC(C)c1csc2ncnc(N3C4CCC3CC(COCCN3CCCC3)C4)c12 (centres unmarked) [Example 287],< 500
18,CC(C)c1csc2ncnc(N3CC4CC3CC4OCCN3CCCC3)c12 (centres unmarked) [Example 288],< 500
19,c1ccc(-c2csc3ncnc(N4C5CCC4CC(OCCN4CCCC4)C5)c23)cc1 (centres unmarked) [Example 289],< 500
20,NC(=O)C1CCN(CCOC2CC3CC2CN3c2ncnc3scc(-c4ccccc4)c23)C1 (centres unmarked) [Example 290],< 500
21,CC(C)c1csc2ncnc(N3C4CCC3CC(OCCN3CCCC3)C4)c12 (centres unmarked) [Example 297],< 500
22,COCC1CCN(c2nc(N3C4CCC3CC(O)C4)nc3scc(-c4ccccc4)c23)CC1 (centres unmarked) [Example 299],500 to 3000
23,COCC1CC2CCC(C1)N2c1nc(N2CCOCC2)c2c(-c3ccccc3)csc2n1 (centres unmarked) [Example 300],500 to 3000
24,c1cc2c(N3C4CCC3COC4)nc(N3CCC(COCCN4CCCC4)CC3)nc2s1 [Example 302],< 500
25,CC(C)CC(=O)Nc1sc2nc(N3CCC(COCCN4CCCC4)CC3)ncc2c1-c1ccccc1 [Example 303],< 500
26,CC(C)C(=O)Nc1sc2nc(N3CCC(COCCN4CCCC4)CC3)ncc2c1-c1ccccc1 [Example 304],< 500
27,NC(=O)C1CCN(c2nc(N3CCOCC3)c3c(-c4ccccc4)csc3n2)C1 (centres unmarked) [Example 306],3000 to 10000
28,COCC1CCN(c2nc(OC3CC4CC3CN4)nc3scc(-c4ccccc4)c23)CC1 (centres unmarked) [Example 307],< 500
29,NC(=O)C1CCN(c2nc(N3CC4CC3CO4)c3c(-c4ccccc4)csc3n2)C1 (centres unmarked) [Example 309],3000 to 10000
30,NC(=O)C1CCN(c2nc(N3C4CCC3CC(CO)C4)c3c(-c4ccccc4)csc3n2)C1 (centres unmarked) [Example 310],500 to 3000

# Next, values leading:
row,IC50 [nM],SMILES
1,< 500,NC(=O)C1CCCN1CC1CCN(c2ncnc3scc(-c4ccccc4)c23)CC1 (centres unmarked) [Example 247]
2,< 500,CC(=O)N(C)C1CCN(CC2CCN(c3ncnc4scc(-c5ccccc5)c34)CC2)C1 (centres unmarked) [Example 248]
3,< 500,CN1CCC(N(C)C(=O)C2CCN(c3ncnc4scc(-c5ccccc5)c34)CC2)C1 (centres unmarked) [Example 249]
4,< 500,C[C@@H](CN(C)C)OCC1CCN(c2ncnc3scc(-c4ccccc4)c23)CC1 [Example 254]
5,< 500,CN1CCCC1CCOCC1CCN(c2nc(N3CCC(C(N)=O)C3)nc3scc(-c4ccccc4)c23)CC1 (centres unmarked) [Example 255]
6,< 500,NC(=O)C1CCN(c2nc(N3CCC(COCCN4CCCC4)CC3)c3c(-c4ccccc4)csc3n2)C1 (centres unmarked) [Example 256]
7,< 500,NC(=O)C1CCN(c2nc(N3CCC(COCCN4CCOCC4)CC3)c3c(-c4ccccc4)csc3n2)C1 (centres unmarked) [Example 258]
8,< 500,CNC(=O)C1(NCC2CCN(c3ncnc4scc(-c5ccccc5)c34)CC2)CCC1 [Example 260]
9,< 500,c1ccc(-c2csc3ncnc(N4CC[C@@H](COCCN5CCCC5)C4)c23)cc1 [Example 262]
10,500 to 3000,CC(C)NC(=O)c1sc2ncnc(N3CCC(COCCN4CCCC4)CC3)c2c1C(C)C [Example 264]
11,500 to 3000,O=C(NCCN1CCCC1)C1CCN(c2ncnc3scc(-c4ccccc4)c23)CC1 [Example 267]
12,< 500,O=C(NCCN1CCCC1)C1CCCN(c2ncnc3scc(-c4ccccc4)c23)C1 (centres unmarked) [Example 268]
13,< 500,c1ccc(-c2csc3ncnc(N4CCC(OCCN5CCCC5)C4)c23)cc1 (centres unmarked) [Example 269]
14,500 to 3000,O=C(NCCN1CCCC1)C1CCN(c2ncnc3scc(-c4ccccc4)c23)C1 (centres unmarked) [Example 270]
15,< 500,c1ccc(-c2csc3ncnc(N4CCC(OCCN5CCCC5)CC4)c23)cc1 [Example 271]
16,< 500,c1ccc(-c2csc3ncnc(N4CCCC(OCCN5CCCC5)C4)c23)cc1 (centres unmarked) [Example 272]
17,< 500,NC(=O)C1CCN(c2nc(N3CCC(COCCN4CCCC4)CC3)nc3scc(-c4ccccc4)c23)C1 (centres unmarked) [Example 274]
18,< 500,CN(C)c1nc(N2CCC(COCCN3CCCC3)CC2)nc2scc(-c3ccccc3)c12 [Example 275]

row,IC50 [nM],SMILES
1,< 500,c1ccc(-c2csc3nc(N4CCC(COCCN5CCCC5)CC4)nc(N4CCOCC4)c23)cc1 [Example 276]
2,< 500,NC(=O)[C@@H]1CCCN1CCOCC1C2CN(c3ncnc4scc(-c5ccc(F)cc5)c34)CC12 (some centres unmarked) [Example 277]
3,< 500,Fc1ccc(-c2csc3ncnc(N4CC5C(COCCN6CC[C@@H](F)C6)C5C4)c23)cc1 (some centres unmarked) [Example 278]
4,500 to 3000,O=C(NCCO)c1sc2ncnc(N3CCC(COCCN4CCCC4)CC3)c2c1-c1ccccc1 [Example 280]
5,< 500,"OCc1sc2ncnc(N3CCC(COCCN4CCCC4)CC3)c2c1-c1ccccc1 [Example 281, [5-phenyl-4-[4-(2-pyrrolidin-1-ylethoxymethyl)-1-piperidyl]thieno[2,3-d]pyrimidin-6-yl]methanol]"
6,< 500,c1sc2nc(N3CCC(COCCN4CCCC4)CC3)ncc2c1C1CCCCC1 [Example 283]
7,< 500,c1ccc(-c2csc3ncnc(N4CC5CC4CC5OCCN4CCCC4)c23)cc1 (centres unmarked) [Example 284]
8,500 to 3000,O=C(NCCN1CCOCC1)C1CCCN(c2ncnc3scc(-c4ccccc4)c23)C1 (centres unmarked) [Example 285]
9,< 500,F[C@H]1CCN(CCOC2CC3CC2CN3c2ncnc3scc(-c4ccccc4)c23)C1 (some centres unmarked) [Example 291]
10,500 to 3000,"CC(C)c1csc2ncnc(N3CC4CC3CC4OCCN3CC4CC3CO4)c12 (centres unmarked) [Example 292, 5-[2-[[2-(5-isopropylthieno[2,3-d]pyrimidin-4-yl)-2-azabicyclo[2.2.1]heptan-5-yl]oxy]ethyl]-2-oxa-5-azabicyclo[2.2.1]heptane]"
11,< 500,NC(=O)[C@H]1CCCN1CCOC1CC2CC1CN2c1ncnc2scc(-c3ccccc3)c12 (some centres unmarked) [Example 293]
12,< 500,CC(C)c1csc2ncnc(N3CC4CC3CC4OCCN3CC[C@H](F)C3)c12 (some centres unmarked) [Example 294]
13,< 500,CC(C)c1csc2ncnc(N3CC4CC3CC4OCCN3CC[C@@H](F)C3)c12 (some centres unmarked) [Example 295]
14,< 500,c1ccc(-c2csc3ncnc(N4CCC(OCCCN5CCCC5)CC4)c23)cc1 [Example 296]
15,< 500,NC(=O)C1CN(c2nc(N3CCC(COCCN4CCCC4)CC3)nc3scc(-c4ccccc4)c23)CCO1 (centres unmarked) [Example 305]
16,< 500,"c1ccc(-c2coc3ncnc(N4CCC(COCCN5CCCC5)CC4)c23)cc1 [Example 308, 5-phenyl-4-[4-(2-pyrrolidin-1-ylethoxymethyl)-1-piperidyl]furo[2,3-d]pyrimidine]"
17,500 to 3000,c1cc(-c2csc3ncnc(N4CCC(COCCN5CCCC5)CC4)c23)ccn1 [Example 311]
